Measured values taken from patent publication US7052850B2, “Isolated human EDG-4 receptor” (priority 1997, dated 2006).
“Also recorded” adds a separate entry of the source.

Experiments:
[1] = test system: pcDNA3-transfected cells; experiment: Calcium microfluorimetry (fura-2), pcDNA3-transfected 293-EBNA cells; format: cell-based; settings: 2 μM S1P
Procedure: Transfections were carried out with EDG receptors in 293-EBNA cells as described above, except that no reporter gene vector was included in the DNA mix. Two days after transfection, cells were harvested by trypsinization and plated at a density of 200,000 cells onto poly-D-lysine-coated coverslips in 100 μl of medium containing 0.5% FBS. After briefly allowing cell attachment to take place, 2 ml of medium without FBS was added and the cells were incubated overnight. The next day, cells were loaded with 5 μM fura-2 AM ester (Molecular Probes) for 60 min at RT, then washed and used for calcium microfluorimetry. […] Treatments were applied using a gravity-fed perfusion apparatus. Fluorescence emission was continuously monitored and recorded with PTI 2.060a software and analyzed with Sigma Plot software. Intracellular calcium concentrations were calculated by interpolation on a ratiometric fluorescence curve generated from fura-2 fluorescence in a calcium dilution series.

[2] = biological target: T1, rat EDG-4 (Rattus norvegicus, UniProt P47752); experiment: IL-8 response in COS-1 cells transfected with rat EDG-4 expression plasmid; format: cell-based; parameters: transient transfection with a eukaryotic expression vector expressing full-length rat edg-4 cDNA; expressed in transfected cells; settings: COS-1, EDG-4 expression plasmid; 5 μm S1P overnight
T1 sequence (P47752 whole entry): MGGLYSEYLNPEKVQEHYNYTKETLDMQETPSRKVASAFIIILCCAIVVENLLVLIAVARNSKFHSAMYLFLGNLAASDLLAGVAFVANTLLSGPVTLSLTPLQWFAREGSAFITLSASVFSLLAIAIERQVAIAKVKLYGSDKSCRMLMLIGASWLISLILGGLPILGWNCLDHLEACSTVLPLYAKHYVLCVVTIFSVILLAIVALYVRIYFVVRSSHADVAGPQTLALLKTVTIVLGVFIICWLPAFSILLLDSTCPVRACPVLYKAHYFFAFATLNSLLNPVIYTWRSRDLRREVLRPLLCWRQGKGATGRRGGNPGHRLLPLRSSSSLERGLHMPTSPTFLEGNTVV

[3] = biological target: EDG-1 (Homo sapiens, UniProt P21453); experiment: SRE luciferase reporter (2XSREtk-p4Luc-zeo) in 293-EBNA cells, EDG-1; format: cell-based; settings: Assay 3; 3 μM; 6 hours
EDG-1, sequence (P21453 whole entry): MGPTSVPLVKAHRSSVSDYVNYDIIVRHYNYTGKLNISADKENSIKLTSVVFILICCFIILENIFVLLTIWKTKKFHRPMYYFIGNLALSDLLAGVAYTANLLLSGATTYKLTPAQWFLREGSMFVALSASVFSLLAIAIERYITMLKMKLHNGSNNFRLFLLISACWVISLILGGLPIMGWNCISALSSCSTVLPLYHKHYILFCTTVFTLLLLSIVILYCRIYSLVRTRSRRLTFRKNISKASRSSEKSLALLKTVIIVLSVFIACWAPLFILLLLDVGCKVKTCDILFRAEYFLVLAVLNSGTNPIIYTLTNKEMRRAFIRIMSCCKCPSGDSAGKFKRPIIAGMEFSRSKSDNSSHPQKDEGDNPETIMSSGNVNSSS
Procedure: The protocol described in Example 11 for Assay 1 was allowed except for the following changes: • 1) 100 mm plates of 293-EBNA ith a confluency of ˜80% were used for transfection, • 2) SRE Cotransfection: 0.5 μg of 2XSREtk-p4Luc-zeo reporter DNA and 3.5 μg pcDNA3, EDG-1, EDG-3 pC3-hE3P2, different from the clone used in Assay 2 of Example 11) or the newly cloned human EDG-4 (pC3-hedg4#36); NF-κB Cotransfection: 2 μg 6XNFκBtk-p4LUc-zeo reporter DNA and 2.0 μg pcDNA3, EDG-1, EDG-3 (pC3-hE3HP2), or EDG-4 (pC3-hedg4#36). Expression plasmid and reporter plasmid DNA samples were combined and diluted in 750 μl of DMEM/F12 (serum free media) and 20 μl Plus Reagent (Lipofectamine Plus Kit, Life Technologies Cat. 109640-13), and incubated at room temperature for 15 min. • 3) 30 μl Lipofectamine Reagent (Lipofectamine Plus Kit) was diluted in 750 μl DMEM/F12. The diluted Lipofectamine was then combined with the DNA/Plus mixture and incubated at room temperature for 15 min. • 4) The 293-EBNA plates were washed once with PBS and 5 ml DMEM/F12 was added to each plate. • 5) DNA/Plus/Lipofectamine mixture was added to each plate of 293-EBNA cells. […]

[4] = test system: Human Umbilical Vein Endothelial Cells (HUVEC); experiment: IL-8 response in primary cultured HUVEC; format: cell-based; settings: 5 μM, 6 hr
Procedure: Cells: HUVEC (Clonetics, Cat. CC-2519) were passaged according to supplier's instructions and used at passage 3. Cells were plated at 20,000 cells/well into 24-well plates. […] LPA induced a 3-fold IL-8 increase at this concentration. […] As shown below in FIG. 23, three cloned edge receptors respond to LPA as an agonist, and all three appear to transduce NF-κB activation in an agonist-dependent manner.

[5] = biological target: T1, rat EDG-4; experiment: NF-κB-tk-p4Luc luciferase reporter in 293-EBNA cells, rat EDG-4; format: cell-based; parameters: transient transfection with a eukaryotic expression vector expressing full-length rat edg-4 cDNA; expressed in transfected cells; host or cells: 293-EBNA
Excerpt: First, the NF-κB response element was reconstructed in a new reporter construct (p4Luc) suitable for stable maintenance as an episome in primate cells. […] The p4-Luc reporter used the backbone of pREP4 (Invitrogen; Cat. V004-50), which contains the EBV orgin of replicaiton (EBVoni), as well as the EBNA-1 viral antigen required to maintain EBVoti containing plasmids as stable episoms in primate cells, and a prokayotic selection marker. A dominant eukaryotic selection marker for zeocin resistance was substituted for expression in pREP4. The promoter of pREP4 was then excised and replaced with a multi-cloning site for introduction of promoter/enhancer inserts. The NF-κB inser of the previous CAT reporter was subcloned into this site and all cloning junctions were sequenced to verify the structure of the plasmid, called NF-κB-tk-p4Luc.
• 1) 150 mm plates of 293-EBNA obtained from Invitrogen (Cat. R620-07) with a confluency of 18 80% were used for transfection. • 2) 6.6 μg NF-κB-tk-p4Luc reporter DNA and 6.6 μg of pC3-redg4 (expressing rat EDG-4), or pcDNA3 DNA was diluted in 500 μl OPTI-MEM (Gibco; Cat. 31985-062) • 3) 96.8 μl Lipofectamine (Gibco; Cat. 18324-020) was diluted in 500 μl of OPTI-MEM. • 4) The 2 solutions were mixed gently and the tube was incubated for 30 min at room temperature. • 5) The 293-EBNA plates were washed once with PBS and 13 ml OPTI-MEM was added to each plate, • 6) 6 ml OPTI-UMM was added to each transfection tube and this was added to a plate of 293EBNA cells. The plates were left for 4 hrs at 37° C. in a 5% CO2 incubator. • 7) After 4 his, the media was removed and replaced with frest 10% FBS media. Day 2: • 1) Transfected cells were washed, typsinized with 1× tryspin, resuspended in 10 ml media and counted. • 2) 0.02×10 ^6 cells were plated per well of a 96-well Blackview plate coated with polyD-lysine. No cells were plated in the outside wells of the 96-well plate. Two 96-well plates were seeded for each transfection. Day 3: • 1) Cells were washed with PBS and 140 μl serum-free media (SFM) added to each well. Plates were incubated in 37° C. incubator for 6 hrs. • 2) After 6 hrs, media was removed and cells treated with compounds diluted in 0.5% FBS media (140 μl added to each well).
Day 4 Luciferase Assay • 1) Luclite kit (Packard; Cat. 6016911) was used for luciferase assay. All reagents were brought to room temperature before use. • 2) Supernatant was transferred to a new 96-well plate and stored at −20 C. for rupture IL-8 measurement. • 3) 50 μl 0.5 M HEPES pH 7.8 buffer (1 mM MgCl21 mM CaCl2) was addeded to all wells of 96-well plate. Black adhesive backing (polyfitronics) was aligned to the bottom of the viewplate. • 4) Luclite substrate was made up by adding 10 ml substate diluent to 1 vial lyophilized substrate. Reconstituted substrate was kept under a dark container. 50 μl substrate was added to each well. • 5) A clear adhesive plate sealer was adjusted on to the viewplate and sealer rubbed over the plate with a Kimwipe. The plate was shaken on a plate shaker at 500 rpm for 5 seconds right side up and then upside down. A stop plate was placed on top of the blackview plate to keep it in the dark. • 6) Plates were incubated at room temperature for 30 min. • 7) After incubation, plates were counted in a 12 detector Packard Top Count on a program without dark delay.

[6] = biological target: T2, human EDG-4 (Homo sapiens, UniProt O95136, F273L/I205V); experiment: Relative potency and efficacy of agonists, luciferase (SRE) reporter in 293-EBNA cells expressing recombinant human EDG-4; format: cell-based; settings: for Rank (EMax): rank of efficacy
T2 construct: a 1059 bp open reading frame (excluding the stop codon) corresponding to the complete human edg-4 coding region; expressed in transfected cells; host or cells: 293-EBNA
T2 sequence (O95136 whole entry I205V/F273L): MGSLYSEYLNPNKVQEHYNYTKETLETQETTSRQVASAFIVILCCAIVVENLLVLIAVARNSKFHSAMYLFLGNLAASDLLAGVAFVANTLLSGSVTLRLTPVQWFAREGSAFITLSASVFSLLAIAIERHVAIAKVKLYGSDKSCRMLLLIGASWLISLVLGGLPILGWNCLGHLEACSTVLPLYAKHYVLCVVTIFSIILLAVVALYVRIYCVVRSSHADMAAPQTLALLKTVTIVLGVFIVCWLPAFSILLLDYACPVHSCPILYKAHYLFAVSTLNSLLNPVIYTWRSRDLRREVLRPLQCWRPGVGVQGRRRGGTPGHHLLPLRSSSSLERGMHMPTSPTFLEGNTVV
Procedure: Transfection of EDG-4, expression, pretreatment and treatment of 293-EBNA cells expressing recombinant human EDG-4 was carried out essentially as described in “Example 11. […] Results were tabulated in Microsoft Excel, and analyzed with GraphPad Prism sotfware. […] The luciferase response was expressed as fold response, after subtracting any endogenous response in pcDNA3-transfected cells at a given concentration of compound.

[7] = test system: HeLa cells; experiment: IL-8 response (IL-8 ELISA) in HeLa cells; format: cell-based, human
Procedure: • Cells: HeLa (adenocarcinoma, human) • Media: DMEM/F12+10% FBS Adherent • 1) Cells were seeded at 0.2×10^6 cells/well in 6-well plates. • 2) Confluency of cells after 24–32 hrs was between 60–70%. B. Overnight Serum-Starvation • 1) Media was aspirated (no PBS wash). • 2) 1.5 ml 0.5% FBS media was added to each well. C. Treatments and Collection • 1) Made up all required solutions in 0.5% FBS media (control). Handling of […] for use in NF-κB experiments requires that sonication, commonly used to resuspend LPA, not be done; NF-κB may be activated by lipid peroxides created through vigorous frothing. Solutions:
D. Detection of Interleukin-8 (IL-8) using an IL-8 ELISA (Enzyme-Linked ImmunoSorbent Assay). • 1) The Quantikine Human IL-8 Immuno Assay Kit was obtained from R&D Systems (Cat. D8050). • 2) The kit and all samples were allowed to equlibrate to room temperature prior to use. • 3) All reagents were provided in the kit and prepared according to the instructions provided. • 4) The assay procedure was followed as recommended in the kit for cell culture supernatant samples. • 5) ELISA was performed on 50 μl samples of culture supernatant and duplicate samples were measured for each well. Each treatment was performed on triplicate wells. • 6) Plates were read on UV max kinetic microplate reader (Molecular Devices), set to 450 nm and correction set to 575 nm, using Wsoftmax sotware version 2.34.
• 1) Cells were seeded at 2.5×10^4 cells/well in 24-well plates. • 2) Confluency of cells after 24–32 hrs was between 60–70%. B. Overnight Serum-Starvation and PTX Pre-Treatment • 1) Media was aspirated (no PBS wash). • 2) 0.5 ml 0.5% FBS media was added to all wells not requiring PTX pre-treatment. • 3) For well requiring PTX; 0.5 ml 0.5% FBS media containing 50 ng/ml PTX (1 volume PTX (RBI Cat. P140): 1 volume DTT, incubate 37° C. for 30 minutes then dilute to 50 ng/ml) was added. C. Treatments and Collection • 1) Made up all required solutions in 0.5% FBS media (control). […] D. Refer to Procedure #1 For HeLa Cells (D).

Row | Compound | change in intracellular calcium [1] | increase in IL-8 release compared to untreated cells [2] [fold] | increase in luciferase activity (SRE reporter) [3] [fold] | IL-8 levels, increase over untreated controls [4] | increase in luciferase activity ([5]; Assay 1, 1 μM S1P, 24 hrs) [fold] | increase in luciferase activity ([5]; Assay 1, 5 μM or 10 μM S1P, 24 hrs) | increase in luciferase activity ([5]; Assay 2, 3 μM) [fold] | agonist character at EDG-4 [6] | Emax ([6]; 293-EBNA, relative efficacy, read-out: EMax (Percent)) [%] | Rank (EMax) [6] | IL-8 response ([7]; 1 and 10 μM, 1, 6 or 24 hours) | IL-8 induction ([7]; 6 hours, concentration series) | induction of NF-κB reporter ([5]; Assay 1, 24 hrs) | EMax (Percent) ([6]; relative efficacy) [%]
1 | CCCCCCCCCCCCC/C=C/[C@@H](O)[C@@H](N)COP(=O)(O)O [S1P, sphingosine 1-phosphate] | approximately 60 nM | 2 | 8 | approximately 5 fold | 2 | 4–4.5 fold | 3.5 | full agonists | 86.7 | 2 |  |  |  | 
2 | lysophosphatidic acid [LPA] |  |  |  |  |  |  |  |  |  |  | not |  |  | 
3 | CCCCCCCCCCCCC/C=C/[C@@H](O)[C@@H](N)COP(=O)([O-])OCC[N+](C)(C)C [SPC, sphingosylphosphorylcholine] |  |  |  | Marginal increases |  |  | 4 | full agonists |  | 1 |  | can induce IL-8 in HeLa cells in a concentration-dependent manner; also recorded: significantly induced IL-8 production | induced the reporter gene | 100
